Source: ChEMBL document CHEMBL1201862, “PubChem BioAssay data set” (2004)
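Growth conditions: 96-well plates. Treatment: test compound, 48 hours, 5 concentrations. Analysis: linear interpolation between bracketing concentrations; unreached endpoints set to highest concentration. Abbreviation: GI50, concentration required for 50% inhibition of growth.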 Active and inactive are the calls of the source. Rule as the data show it: active = GI50 up to about 1.1 µM and inactive = higher.

Legend:
Assay in all cases: NCI tumour cell line growth inhibition, 48 h
[1] = system: 786-0
[2] = system: A498
[3] = system: A549
[4] = system: ACHN
[5] = system: BT-549
[6] = system: CAKI-1
[7] = system: CCRF-CEM
[8] = system: COLO 205
[9] = system: DU-145
[10] = system: EKVX
[11] = system: HCC 2998
[12] = system: HCT-116
[13] = system: HCT-15
[14] = system: HL-60
[15] = system: HOP-62
[16] = system: HOP-92
[17] = system: HT-29
[18] = system: Hs-578T
[19] = system: IGROV-1
[20] = system: K562
[21] = system: KM12
[22] = system: LOX IMVI
[23] = system: M14
[24] = system: MCF7
[25] = system: MDA-MB-231
[26] = system: MDA-MB-435
[27] = system: MDA-N
[28] = system: MOLT-4
[29] = system: NCI-H23
[30] = system: NCI-H460
[31] = system: NCI-H522
[32] = system: NCI/ADR-RES
[33] = system: OVCAR-3
[34] = system: OVCAR-4
[35] = system: OVCAR-5
[36] = system: OVCAR-8
[37] = system: PC-3
[38] = system: RXF 393
[39] = system: SF-268
[40] = system: SF-295
[41] = system: SF-539
[42] = system: SK-MEL-28
[43] = system: SK-MEL-2
[44] = system: SK-MEL-5
[45] = system: SN12C
[46] = system: SNB-19
[47] = system: SR
[48] = system: SW-620
[49] = system: T47D
[50] = system: TK-10
[51] = system: U-251
[52] = system: UACC-257
[53] = system: UACC-62
[54] = system: UO-31
[55] = system: NCI-H226
[56] = system: RPMI-8226
[57] = system: SK-OV-3
[58] = system: SNB-75

SMILES: CC(C)(C)NC(=O)C12C3C4C1C1C2C3C41C(=O)NC(C)(C)C (centres undefined)
- GI50 [1]: > 100 µM (inactive)
- GI50 [2]: > 100 µM (inactive)
- GI50 [3]: > 100 µM (inactive)
- GI50 [4]: > 100 µM (inactive)
- GI50 [5]: > 100 µM (inactive)
- GI50 [6]: > 100 µM (inactive)
- GI50 [7]: 26.4 µM (inactive)
- GI50 [8]: > 100 µM (inactive)
- GI50 [9]: > 100 µM (inactive)
- GI50 [10]: > 100 µM (inactive)
- GI50 [11]: > 100 µM (inactive)
- GI50 [12]: > 100 µM (inactive)
- GI50 [13]: > 100 µM
- GI50 [14]: > 100 µM (inactive)
- GI50 [15]: 58.9 µM (inactive)
- GI50 [16]: 15.1 µM (inactive)
- GI50 [17]: > 100 µM (inactive)
- GI50 [18]: 32.8 µM (inactive)
- GI50 [19]: > 100 µM (inactive)
- GI50 [20]: > 100 µM (inactive)
- GI50 [21]: > 100 µM (inactive)
- GI50 [22]: > 100 µM (inactive)
- GI50 [23]: > 100 µM (inactive)
- GI50 [24]: > 100 µM (inactive)
- GI50 [25]: > 100 µM (inactive)
- GI50 [26]: > 100 µM (inactive)
- GI50 [27]: > 100 µM (inactive)
- GI50 [28]: 78.3 µM (inactive)
- GI50 [29]: > 100 µM (inactive)
- GI50 [30]: > 100 µM (inactive)
- GI50 [31]: > 100 µM (inactive)
- GI50 [32]: > 100 µM (inactive)
- GI50 [33]: > 100 µM (inactive)
- GI50 [34]: > 100 µM (inactive)
- GI50 [35]: > 100 µM (inactive)
- GI50 [36]: > 100 µM (inactive)
- GI50 [37]: > 100 µM (inactive)
- GI50 [38]: 40.8 µM (inactive)
- GI50 [39]: > 100 µM (inactive)
- GI50 [40]: 80 µM (inactive)
- GI50 [41]: > 100 µM (inactive)
- GI50 [42]: > 100 µM (inactive)
- GI50 [43]: > 100 µM (inactive)
- GI50 [44]: > 100 µM (inactive)
- GI50 [45]: > 100 µM (inactive)
- GI50 [46]: 47.8 µM (inactive)
- GI50 [47]: 45.6 µM (inactive)
- GI50 [48]: > 100 µM (inactive)
- GI50 [49]: > 100 µM (inactive)
- GI50 [50]: > 100 µM (inactive)
- GI50 [51]: > 100 µM (inactive)
- GI50 [52]: > 100 µM (inactive)
- GI50 [53]: > 100 µM (inactive)
- GI50 [54]: > 100 µM (inactive)

SMILES: COc1ccc(NC=O)c(C(=O)CCNC(C)=O)c1
- GI50 [1]: > 100 µM (inactive)
- GI50 [2]: > 100 µM (inactive)
- GI50 [3]: > 100 µM (inactive)
- GI50 [4]: > 100 µM (inactive)
- GI50 [5]: > 100 µM (inactive)
- GI50 [6]: > 100 µM (inactive)
- GI50 [7]: > 100 µM (inactive)
- GI50 [8]: > 100 µM (inactive)
- GI50 [9]: > 100 µM (inactive)
- GI50 [10]: > 100 µM (inactive)
- GI50 [12]: > 100 µM (inactive)
- GI50 [13]: > 100 µM
- GI50 [14]: > 100 µM (inactive)
- GI50 [16]: > 100 µM (inactive)
- GI50 [17]: > 100 µM (inactive)
- GI50 [18]: > 100 µM (inactive)
- GI50 [19]: > 100 µM (inactive)
- GI50 [20]: > 100 µM (inactive)
- GI50 [21]: > 100 µM (inactive)
- GI50 [22]: > 100 µM (inactive)
- GI50 [23]: > 100 µM (inactive)
- GI50 [24]: > 100 µM (inactive)
- GI50 [25]: > 100 µM (inactive)
- GI50 [26]: > 100 µM (inactive)
- GI50 [27]: > 100 µM (inactive)
- GI50 [28]: > 100 µM (inactive)
- GI50 [55]: > 100 µM (inactive)
- GI50 [29]: > 100 µM (inactive)
- GI50 [30]: > 100 µM (inactive)
- GI50 [31]: > 100 µM (inactive)
- GI50 [32]: > 100 µM (inactive)
- GI50 [33]: > 100 µM (inactive)
- GI50 [34]: > 100 µM (inactive)
- GI50 [35]: > 100 µM (inactive)
- GI50 [36]: > 100 µM (inactive)
- GI50 [37]: > 100 µM (inactive)
- GI50 [56]: > 100 µM (inactive)
- GI50 [38]: > 100 µM (inactive)
- GI50 [39]: > 100 µM (inactive)
- GI50 [40]: > 100 µM (inactive)
- GI50 [41]: > 100 µM (inactive)
- GI50 [43]: > 100 µM (inactive)
- GI50 [44]: > 100 µM (inactive)
- GI50 [57]: > 100 µM (inactive)
- GI50 [45]: > 100 µM (inactive)
- GI50 [46]: > 100 µM (inactive)
- GI50 [58]: > 100 µM (inactive)
- GI50 [47]: > 100 µM (inactive)
- GI50 [48]: > 100 µM (inactive)
- GI50 [49]: > 100 µM (inactive)
- GI50 [50]: > 100 µM (inactive)
- GI50 [51]: > 100 µM (inactive)
- GI50 [52]: > 100 µM (inactive)
- GI50 [53]: > 100 µM (inactive)
- GI50 [54]: > 100 µM (inactive)
